# Counter-ions that a name gives are not always drawn.
# Columns and labels:
# Format in all cases: biochemical
# steroid sulfatase (STS) = target: T1, steroid sulfatase (STS) (Homo sapiens, UniProt P08842); test: 3H-DHEA scintillation counting; details: labelled compound; 5 µM DHEAS, pH 7.4, 37 °C
# T1 sequence (P08842 22-583): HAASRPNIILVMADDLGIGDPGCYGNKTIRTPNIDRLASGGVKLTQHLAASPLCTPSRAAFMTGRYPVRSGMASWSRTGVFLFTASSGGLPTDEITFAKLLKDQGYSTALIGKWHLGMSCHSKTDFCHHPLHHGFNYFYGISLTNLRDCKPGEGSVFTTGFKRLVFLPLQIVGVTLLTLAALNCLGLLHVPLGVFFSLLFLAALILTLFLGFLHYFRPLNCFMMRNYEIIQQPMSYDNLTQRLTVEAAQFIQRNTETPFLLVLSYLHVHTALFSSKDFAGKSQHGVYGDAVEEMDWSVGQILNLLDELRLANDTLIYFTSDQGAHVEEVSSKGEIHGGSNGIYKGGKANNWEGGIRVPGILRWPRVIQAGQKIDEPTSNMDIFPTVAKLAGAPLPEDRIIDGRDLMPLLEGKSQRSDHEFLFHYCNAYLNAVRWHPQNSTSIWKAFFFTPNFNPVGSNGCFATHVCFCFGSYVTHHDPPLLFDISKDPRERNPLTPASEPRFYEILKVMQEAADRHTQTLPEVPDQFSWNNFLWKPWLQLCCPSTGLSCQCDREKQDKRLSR
# PARS = PARS (Pseudomonas aeruginosa, UniProt P51691); test: colorimetric assay, […] nm; details: 8 mM pNCS, pH 8.5, room temperature
# Sequence of PARS (P51691 2-536): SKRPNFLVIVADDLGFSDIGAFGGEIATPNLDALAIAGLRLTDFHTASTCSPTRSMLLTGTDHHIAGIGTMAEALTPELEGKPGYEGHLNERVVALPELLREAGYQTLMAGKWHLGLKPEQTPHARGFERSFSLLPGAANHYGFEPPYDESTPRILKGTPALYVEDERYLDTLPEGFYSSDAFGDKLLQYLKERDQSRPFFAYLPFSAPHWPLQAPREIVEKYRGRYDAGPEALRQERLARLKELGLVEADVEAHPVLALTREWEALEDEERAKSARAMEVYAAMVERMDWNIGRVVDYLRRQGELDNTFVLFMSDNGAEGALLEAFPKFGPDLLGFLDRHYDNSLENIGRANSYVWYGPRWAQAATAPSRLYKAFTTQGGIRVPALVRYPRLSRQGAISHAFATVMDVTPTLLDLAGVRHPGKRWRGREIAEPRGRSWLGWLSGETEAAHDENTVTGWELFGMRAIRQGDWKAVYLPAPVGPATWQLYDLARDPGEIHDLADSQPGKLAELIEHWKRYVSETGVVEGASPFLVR
# aryl sulfatase G (ARSG) = target: T2, aryl sulfatase G (ARSG) (Homo sapiens, UniProt Q96EG1); test: colorimetric assay, […] nm; details: 8 mM pNCS, 0.5 M NaOAc, pH 5.6, 37 °C
# T2 sequence (Q96EG1 17-525): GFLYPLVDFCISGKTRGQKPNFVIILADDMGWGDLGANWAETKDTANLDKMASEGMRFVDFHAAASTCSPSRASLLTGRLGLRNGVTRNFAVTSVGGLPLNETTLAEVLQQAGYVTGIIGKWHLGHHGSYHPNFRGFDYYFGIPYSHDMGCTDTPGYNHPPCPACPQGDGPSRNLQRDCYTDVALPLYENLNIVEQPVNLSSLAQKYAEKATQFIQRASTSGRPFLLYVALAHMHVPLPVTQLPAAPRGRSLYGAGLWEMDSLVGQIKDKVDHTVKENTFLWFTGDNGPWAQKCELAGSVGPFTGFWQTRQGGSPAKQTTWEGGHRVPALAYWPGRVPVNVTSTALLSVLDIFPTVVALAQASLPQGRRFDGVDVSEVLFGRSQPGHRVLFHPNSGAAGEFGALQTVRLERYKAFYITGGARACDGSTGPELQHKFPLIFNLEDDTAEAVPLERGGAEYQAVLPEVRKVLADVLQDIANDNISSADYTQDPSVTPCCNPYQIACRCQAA
# KARS = target: T3, KARS (Klebsiella pneumoniae, UniProt Q9X759); test: colorimetric assay, […] nm; details: 8 mM pNCS, pH 7.5, room temperature
# T3 sequence (Q9X759 21-577): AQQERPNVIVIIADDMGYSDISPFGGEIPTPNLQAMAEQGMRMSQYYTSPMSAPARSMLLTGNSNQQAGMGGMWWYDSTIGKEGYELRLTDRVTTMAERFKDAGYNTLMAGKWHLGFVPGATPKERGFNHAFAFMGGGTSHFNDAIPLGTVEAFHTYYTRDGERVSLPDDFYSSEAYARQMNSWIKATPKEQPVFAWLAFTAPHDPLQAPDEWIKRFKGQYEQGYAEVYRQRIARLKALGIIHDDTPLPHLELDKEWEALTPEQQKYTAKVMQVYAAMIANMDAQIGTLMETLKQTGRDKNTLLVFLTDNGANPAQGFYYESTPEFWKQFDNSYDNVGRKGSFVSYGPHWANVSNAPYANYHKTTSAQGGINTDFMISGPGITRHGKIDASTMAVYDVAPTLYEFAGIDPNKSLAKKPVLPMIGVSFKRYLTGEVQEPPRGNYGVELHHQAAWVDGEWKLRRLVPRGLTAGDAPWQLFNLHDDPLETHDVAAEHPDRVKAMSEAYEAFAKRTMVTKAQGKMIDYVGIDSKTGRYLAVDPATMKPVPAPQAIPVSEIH
Structure (SMILES),3H-DHEA scintillation counting (steroid sulfatase (STS)),"colorimetric assay, 515 nm (PARS)","colorimetric assay, 515 nm (aryl sulfatase G (ARSG))","colorimetric assay, 515 nm (KARS)"
C[C@]12CC[C@H](OS(=O)(=O)O)CC1=CC[C@@H]1[C@@H]2CC[C@]2(C)C(=O)CC[C@@H]12 [dehydroepiandrosterone-3-sulfate],STS activity was determined using a radioactive dehydroepiandrosterone-3-sulfate (^3DHEAS) assay,–,–,–
O=[N+]([O-])c1ccc(O)c(OS(=O)(=O)O)c1 [para-nitrocatechol sulfate],–,"KARS, PARS and ARSG activities were monitored using a para-nitrocatechol sulfate (pNCS) colorimetric assay","KARS, PARS and ARSG activities were monitored using a para-nitrocatechol sulfate (pNCS) colorimetric assay","KARS, PARS and ARSG activities were monitored using a para-nitrocatechol sulfate (pNCS) colorimetric assay"
